Measurements reported in ChEMBL document CHEMBL5505993, “Identification of a ferritinophagy inducer via sinomenine modification for the treatment of colorectal cancer” (Eur J Med Chem, 2024).
Activity calls are given as the source filed them. The rule behind the calls is not given here.

Assays:
[1] = Cytotoxicity against human NCM460 cells assessed as inhibition of cell growth incubated for 48 hrs by CCK-8 assay; format: toxicity, cell-based
[2] = Toxicity in BALB/c mouse xenografted with human HCT-116 cells assessed as change in body weight at 60 mg/kg,ip administrated daily for 14 days; format: organism-based; settings: in vivo, 336 h, time 14 day
[3] = Toxicity in BALB/c mouse xenografted with human HCT-116 cells assessed as histopathological changes in kidney at 30 mg/kg,ip administrated daily for 14 days by hematoxylin and eosin staining based microscopic analysis; format: organism-based; settings: in vivo, 336 h, time 14 day
HCT-116 [4] = assay: Antitumor activity against human HCT-116 cells xenografted in BALB/c mouse assessed as reduction in tumor weight at 60 mg/kg,ip administrated daily for 14 days; format: functional, organism-based; settings: time 14.0 day
[5] = Toxicity in BALB/c mouse xenografted with human HCT-116 cells assessed as histopathological changes in heart at 60 mg/kg,ip administrated daily for 14 days by hematoxylin and eosin staining based microscopic analysis; format: organism-based; settings: in vivo, 336 h, time 14 day
HCT-116 [6] = assay: Antitumor activity against human HCT-116 cells xenografted in BALB/c mouse assessed as increase in LC3B expression at 60 mg/kg,ip administrated daily for 14 days by immunohistochemistry; format: functional, organism-based; settings: time 14.0 day
HCT-116 [7] = assay: Antitumor activity against human HCT-116 cells xenografted in BALB/c mouse assessed as tumor cell rupture at 30 mg/kg,ip administrated daily for 14 days by hematoxylin and eosin staining based microscopic analysis; format: functional, organism-based; settings: time 14.0 day
HCT-116 [8] = assay: Induction of ferritin autophagy in human HCT-116 cells assessed as upregulation of FTH1 protein expression at 5 to 20 uM incubated for 12 hrs by Western blotting analysis; format: functional, cell-based; settings: dose 5-20 µM
HCT-116 [9] = assay: Antitumor activity against human HCT-116 cells xenografted in BALB/c mouse assessed as reduction in tumor density at 60 mg/kg,ip administrated daily for 14 days by hematoxylin and eosin staining based microscopic analysis; format: functional, organism-based; settings: time 14.0 day
HCT-116 [10] = assay: Antitumor activity against human HCT-116 cells xenografted in BALB/c mouse assessed as reduction in tumor volume at 30 mg/kg,ip administrated daily for 14 days; format: functional, organism-based; settings: time 14.0 day
HCT-116 [11] = assay: Induction of ferroptosis in human HCT-116 cells assessed as increase in intracellular ferrous ion level incubated for 12 hrs by ferroOrange probe based flow cytometric analysis; format: functional, cell-based
HCT-116 [12] = assay: Antitumor activity against human HCT-116 cells xenografted in BALB/c mouse assessed as presence of pyknotic nucleus at 30 mg/kg,ip administrated daily for 14 days by hematoxylin and eosin staining based microscopic analysis; format: functional, organism-based; settings: time 14.0 day
HCT-116 [13] = assay: Induction of autophagy in human HCT-116 cells assessed as increase in 4-HNE level at 20 uM incubated for 12 hrs by ELISA; format: functional, cell-based
HCT-116 [14] = assay: Induction of ferroptosis in human HCT-116 cells assessed as increase in ferrous ion level in lysosomes at 20 uM incubated for 12 hrs by Hoechst 33342 staining based confocal fluorescence microscopic analysis; format: functional, cell-based
HCT-116 [15] = assay: Induction of ferroptosis in human HCT-116 cells assessed as increase in intracellular lipid ROS accumulation at 20 uM incubated for 12 hrs in presence of ferroptosis inhibitor, deferoxamine mesylate by C11 BODIPY probe based flow cytometry; format: functional, cell-based
HCT-116 [16] = assay: Induction of ferritin autophagy in human HCT-116 cells assessed as upregulation of NCOA4 protein expression at 5 to 20 uM incubated for 12 hrs by Western blotting analysis; format: functional, cell-based; settings: dose 5-20 µM
HCT-116 [17] = assay: Antitumor activity against human HCT-116 cells xenografted in BALB/c mouse assessed as reduction in tumor volume at 60 mg/kg,ip administrated daily for 14 days; format: functional, organism-based; settings: time 14.0 day
[18] = Toxicity in BALB/c mouse xenografted with human HCT-116 cells assessed as histopathological changes in kidney at 60 mg/kg,ip administrated daily for 14 days by hematoxylin and eosin staining based microscopic analysis; format: organism-based; settings: in vivo, 336 h, time 14 day
HCT-116 [19] = assay: Induction of autophagy in human HCT-116 cells transfected with mRFP-GFP-LC3B assessed as colocalization of lysosome with LC3B protein at 20 uM incubated for 12 hrs by Lyso tracker red staining based confocal fluorescence microscopic analysis; format: functional, cell-based
HCT-116 [20] = assay: Antitumor activity against human HCT-116 cells xenografted in BALB/c mouse assessed as increase in LC3B expression at 30 mg/kg,ip administrated daily for 14 days by immunohistochemistry; format: functional, organism-based; settings: time 14.0 day
HCT-116 [21] = assay: Induction of ferritin autophagy in human HCT-116 cells assessed as upregulation of FTH1 protein expression at 20 uM incubated for 12 hrs in presence of autophagy inhibitor, Bafilomycin A1 by Western blotting analysis; format: functional, cell-based
[22] = Toxicity in BALB/c mouse xenografted with human HCT-116 cells assessed as histopathological changes in liver at 30 mg/kg,ip administrated daily for 14 days by hematoxylin and eosin staining based microscopic analysis; format: organism-based; settings: in vivo, 336 h, time 14 day
HCT-116 [23] = assay: Induction of ferroptosis in human HCT-116 cells assessed as increase in intracellular ferrous ion level at 20 uM incubated for 12 hrs in presence of ferroptosis inhibitor, deferoxamine mesylate by ferroOrange probe based flow cytometric analysis; format: functional, cell-based
HCT-116 [24] = assay: Induction of ferroptosis in human HCT-116 cells assessed as increase in ferrous ion level in lysosomes at 20 uM incubated for 12 hrs by ferroOrange probe based confocal fluorescence microscopic analysis; format: functional, cell-based
HCT-116 [25] = assay: Induction of autophagy in human HCT-116 cells assessed as formation of autophagosomes at 20 uM incubated for 12 hrs in presence of Bafilomycin A1 by confocal microscopic analysis; format: functional, cell-based
HCT-116 [26] = assay: Induction of autophagy in human HCT-116 cells assessed as increase in intracellular ferrous ion level at 20 uM incubated for 12 hrs in presence of autophagy inhibitor, Bafilomycin A1 by Lyso tracker green staining based confocal microscopic analysis; format: functional, cell-based
HCT-116 [27] = assay: Antitumor activity against human HCT-116 cells xenografted in BALB/c mouse assessed as reduction in tumor weight at 30 mg/kg,ip administrated daily for 14 days; format: functional, organism-based; settings: time 14.0 day
HCT-116 [28] = assay: Induction of ferroptosis in human HCT-116 cells assessed as increase in 4-HNE level at 20 uM by ELISA; format: functional, cell-based
HCT-116 [29] = assay: Induction of ROS production in human HCT-116 cells incubated for 12 hrs by DCFH-DA probe based flow cytometry; format: functional, cell-based
[30] = Toxicity in BALB/c mouse xenografted with human HCT-116 cells assessed as change in body weight at 30 mg/kg,ip administrated daily for 14 days; format: organism-based; settings: in vivo, 336 h, time 14 day
HCT-116 [31] = assay: Induction of ferroptosis in human HCT-116 cells assessed as increase in intracellular lipid ROS accumulation at 20 uM incubated for 12 hrs in presence of ferroptosis inhibitor, Ferrostatin-1 by C11 BODIPY probe based flow cytometry; format: functional, cell-based
HCT-116 [32] = assay: Induction of ferroptosis in human HCT-116 cells assessed as increase in 4-HNE level in presence of Ferrostatin-1 at 20 uM by ELISA; format: functional, cell-based
HCT-116 [33] = assay: Induction of ferroptosis in human HCT-116 cells assessed as effect on AIFM2 protein expression at 5 to 20 uM incubated for 12 hrs by Western blotting analysis; format: functional, cell-based; settings: dose 5-20 µM
HCT-116 [34] = assay: Antitumor activity against human HCT-116 cells xenografted in BALB/c mouse assessed as tumor cell rupture at 60 mg/kg,ip administrated daily for 14 days by hematoxylin and eosin staining based microscopic analysis; format: functional, organism-based; settings: time 14.0 day

Q: With C=C(Cl)C(=O)NCCCCCCCCCCCC(=O)Oc1c(OC)ccc2c1[C@@]13CCN(C)[C@@H](C2)[C@H]1C=C(OC)C(=O)C3 as the compound, how does the IC50 at 48 h [1] read?
A: 19 µM

Q: What about the Activity [2] of the same compound?
A: Non-Toxic

Q: What about the Activity [3] of the same compound?
A: Non-Toxic

Q: And the Activity (HCT-116 [4])?
A: Active

Q: And the Activity [5]?
A: Non-Toxic

Q: What about the Activity (HCT-116 [6]) of the same compound?
A: Active

Q: What about the Activity (HCT-116 [7]) of the same compound?
A: Active

Q: What about the Activity (HCT-116 [8]) of the same compound?
A: Active

Q: And the Activity (HCT-116 [9])?
A: Active

Q: And the Activity (HCT-116 [10])?
A: Active

Q: And the Activity (HCT-116 [11])?
A: Dose-Dependent Effect

Q: What about the Activity (HCT-116 [12]) of the same compound?
A: Active

Q: And the Activity (HCT-116 [13])?
A: Active

Q: And the Activity (HCT-116 [14])?
A: Active

Q: And the Activity (HCT-116 [15])?
A: Active

Q: What about the Activity (HCT-116 [16]) of the same compound?
A: inactive

Q: What about the Activity (HCT-116 [17]) of the same compound?
A: Active

Q: And the Activity [18]?
A: Non-Toxic

Q: What about the Activity (HCT-116 [19]) of the same compound?
A: Active

Q: And the Activity (HCT-116 [20])?
A: Active

Q: What about the Activity (HCT-116 [21]) of the same compound?
A: inactive

Q: What about the Activity [22] of the same compound?
A: Non-Toxic

Q: What about the Activity (HCT-116 [23]) of the same compound?
A: inactive

Q: And the Activity (HCT-116 [24])?
A: Active

Q: What about the Activity (HCT-116 [25]) of the same compound?
A: inactive

Q: What about the Activity (HCT-116 [26]) of the same compound?
A: inactive

Q: And the Activity (HCT-116 [27])?
A: Active

Q: And the Activity (HCT-116 [28])?
A: Active

Q: What about the Activity (HCT-116 [29]) of the same compound?
A: Active

Q: What about the Activity [30] of the same compound?
A: Non-Toxic

Q: What about the Activity (HCT-116 [31]) of the same compound?
A: Active

Q: What about the Activity (HCT-116 [32]) of the same compound?
A: inactive

Q: What about the Activity (HCT-116 [33]) of the same compound?
A: inactive

Q: What about the Activity (HCT-116 [34]) of the same compound?
A: Active
